# Data: patent US20070134744A1, “Epothilone resistant cell lines” (priority 2000, published 2007)
# Where a name gives a salt, the structure may show the parent alone. Read-outs that look alike come from different tables or passages of the source.
# Columns and labels:
# 298/D4/40 cells = assay type: cell-based, human; settings: for RF (resistance factor: IC50 resistant cell line / IC50 parental KB-31): 298/D4/40 (EpoA selected), 72 hrs, in the presence of 40 nM epothilone A; for resistance profile in words: 298/D4/40 vs parental KB-31
# Protocol: (§1) Anti-proliferative assays are performed basically as described (Meyer et al., Int. J. Cancer 43:851 (1989)). Briefly, cells are seeded at 1.5×10^3 cells/well into 96-well microtiter plates and allowed to adhere by incubation overnight. Compounds are added in serial dilutions on day 1. The plates are then incubated for an additional 3 days, after which the cells are fixed with 3.3% v/v glutaraldehyde, washed with water and stained with 0.05% w/v methylene blue according to conventional methods. After washing, the dye is eluted with 3% HCl and the optical density measured at 665 nm with a SpectraMax Plus (Molecular Devices, Sunnyvale, Calif.) according to manufacturers instructions. IC50 values are determined by mathematical curve-fitting using the SoftPro2.6.1 program (Molecular Devices, Sunnyvale, Calif.) using the formula (OD treated−OD start)/(OD control−OD start)×100. […] IC50 determinations with the cell line 298/D4/40 are performed in the presence of 40 nM epothilone A.
# (§2) Data in Table 4 are gathered according to the following methods: Cells (1×10^3) are seeded in 96-well plates and allowed to adhere for 24 hrs. Compounds are then added as two-fold serial dilutions and incubation continued for an additional 72 hrs. Cell numbers at the beginning and at the end of the experiment are estimated by methylene blue staining of cellular protein mass according to conventional methods. The net mass increase of vehicle-treated cells is set as 100% growth. The IC50 is determined as the drug concentration that leads to half-maximal growth inhibition compared to the control. The resistance factor (RF) for a particular drug is calculated by dividing the IC50 determined on the resistant cell line by that determined on the parental KB-31 cells. Data are presented as average±standard deviation (SD) of three separate experiments, except na=not applicable (n<3). Colchicine-selected KB-8511 cells overexpressing P-glycoprotein served as a reference for the classical multi-drug-resistant phenotype.
# 297/C5/0 cells = assay type: cell-based, human; settings: for RF (resistance factor: IC50 resistant cell line / IC50 parental KB-31): 297/C5/0 (EpoA selected), 72 hrs, average of three experiments; for resistance profile in words: 297/C5/0 vs parental KB-31
# Protocol: as §1, §2
# 315/sc5.9 cells = assay type: cell-based, human; settings: for RF (resistance factor: IC50 resistant cell line / IC50 parental KB-31): 315/sc5.9 (EpoB selected), 72 hrs, average of three experiments; for resistance profile in words: 315/sc5.9 vs parental KB-31
# Protocol: as §1, §2
# KB-8511 cells = assay type: cell-based, human; settings: for RF (resistance factor: IC50 resistant cell line / IC50 parental KB-31): KB-8511 (Colch selected), 72 hrs, average of three experiments; for resistance profile in words: KB-8511 vs parental KB-31
# Protocol: as §2
# MDA/T0.3 cells = test: MTS growth inhibition assay; assay type: cell-based
# Protocol: Growth inhibition may be analyzed using conventional methods, for example a MTS assay (PROMEGA, Wis.) may be used. In this assay approximately 4000 cells per well are seeded in 96 well plates in MEM supplemented with 10% fetal calf serum and incubated at 37° C. in 5.0% CO2. […] The MTS reagent mixed with PMS (MTS:PMS 20:1 according to manufacturer's instructions) is then added and absorbance quantitated using a Thermomax microplate reader system according to conventional methods (Molecular Devices, Sunnyvale, Calif.). […] Six assays per drug per plate are performed.
# (§3) As such, epothilone resistant cells would have some degree of cross-resistance to other P-gp substrates that could be reversed by P-gp inhibitors. To investigate this possibility, the cytotoxicity of the P-gp substrates, vincristine, doxorubicine and vinblastine is determined against epothilone A resistant cells using the MTS assay. […] When EA20 and resistant MDA/T0.3 cells are incubated with TAXOL® or epothilone A in the presence of [3′-Desoxy-3′-oxo-MeBmt]^1-[Val]^2-Ciclosporin (PSC-833; a P-gp inhibitor which is disclosed in U.S. Pat. No. 5,525,590), the resistance of MDA/T0.3 cells to TAXOL® is reversed but no effect on the resistance of EA20 to epothilone A is observed.
# MDA/T0.3 is a clonal subline of MDA-MB-435 cells selected by increasing exposure of MDA-MB-435 cells to TAXOL®. MDA/T0.3 cells express high levels of P-glycoprotein and are resistant to a variety of chemically and functionally unrelated compounds. MDA/T0.3 cells could be sensitized to a variety of cytotoxic agents by treatment with the P-glycoprotein reversing agent PSC-833.
# EA40 cells = test: MTS growth inhibition assay; assay type: cell-based; settings: for IC50: EA40 cells, P-gp substrates, Table 2; for resistance profile in words: EA40 vs MDA-MB-435 / EA150
# Protocol: Growth inhibition may be analyzed using conventional methods, for example a MTS assay (PROMEGA, Wis.) may be used. In this assay approximately 4000 cells per well are seeded in 96 well plates in MEM supplemented with 10% fetal calf serum and incubated at 37° C. in 5.0% CO2. After 24 hours, dilutions of drug (concentration range used is between 1 nM and 1000 nM) are added and cells are allowed to incubate with drug for an additional 72 hours. The MTS reagent mixed with PMS (MTS:PMS 20:1 according to manufacturer's instructions) is then added and absorbance quantitated using a Thermomax microplate reader system according to conventional methods (Molecular Devices, Sunnyvale, Calif.). […] Six assays per drug per plate are performed. […]
# as §3
# MDA-MB-435 cells = test: MTS growth inhibition assay; assay type: cell-based; settings: Homo sapiens, P-gp substrates, Table 2
# Protocol: Growth inhibition may be analyzed using conventional methods, for example a MTS assay (PROMEGA, Wis.) may be used. In this assay approximately 4000 cells per well are seeded in 96 well plates in MEM supplemented with 10% fetal calf serum and incubated at 37° C. in 5.0% CO2. After 24 hours, dilutions of drug (concentration range used is between 1 nM and 1000 nM) are added and cells are allowed to incubate with drug for an additional 72 hours. The MTS reagent mixed with PMS (MTS:PMS 20:1 according to manufacturer's instructions) is then added and absorbance quantitated using a Thermomax microplate reader system according to conventional methods (Molecular Devices, Sunnyvale, Calif.). […] Six assays per drug per plate are performed.
# Thus, at least two potential mechanisms of epothilone A resistance may exist—a lower resistance mechanism that is cross-resistant to TAXOL® and a higher, epothilone A specific resistance mechanism.
# [1] = MDA/T0.3 cells, P-gp substrates, Table 2, read-out: IC50
IC50 (MDA-MB-435 cells) [nM],Compound,RF (resistance factor: IC50 resistant cell line / IC50 parental KB-31) (298/D4/40 cells),resistance profile in words (298/D4/40 cells),RF (resistance factor: IC50 resistant cell line / IC50 parental KB-31) (297/C5/0 cells),resistance profile in words (297/C5/0 cells),RF (resistance factor: IC50 resistant cell line / IC50 parental KB-31) (315/sc5.9 cells),resistance profile in words (315/sc5.9 cells),RF (resistance factor: IC50 resistant cell line / IC50 parental KB-31) (KB-8511 cells),IC50 (MDA/T0.3 cells) [nM],IC50 (EA40 cells) [nM],resistance profile in words (KB-8511 cells),IC50 (MDA/T0.3 cells; [1]) [nM],resistance profile in words (EA40 cells)
,"O=c1[nH]cc(F)c(=O)[nH]1 [5-FU, 5-Fluorouracil]",0.9,Neither cell line is cross-resistant,1.2,Neither cell line is cross-resistant,0.4,slightly hypersensitive,1.1,,,,,
,"CN[C@H]1CCc2cc(OC)c(OC)c(OC)c2-c2ccc(OC)c(=O)cc21 [Demecolcine, demecolcine]",,hypersensitive,,hypersensitive,,slightly hypersensitive,,,,resistant,,
,C=C/C=C\[C@H](C)[C@H](OC(N)=O)[C@@H](C)[C@H](O)[C@@H](C)C/C(C)=C\[C@H](C)[C@@H](O)[C@@H](C)/C=C\[C@@H](O)C[C@@H]1OC(=O)[C@H](C)[C@@H](O)[C@H]1C [Discodermolide],0.5,not cross-resistant,1.3,not cross-resistant,1.2,,2.8,,,,,
> 500,"COc1cccc2c1C(=O)c1c(O)c3c(c(O)c1C2=O)C[C@@](O)(C(=O)CO)C[C@@H]3O[C@H]1C[C@H](N)[C@H](O)[C@H](C)O1 [Doxorubicin, doxorubicin]",1.2,Neither cell line is cross-resistant,1.6,Neither cell line is cross-resistant,1.8,marginal cross-resistance,48.8,,365 ± 200,resistant,> 5000,equally sensitive
,"[NH2][Pt]1([NH2])[O]C(=O)C2(CCC2)C(=O)[O]1 [Paraplatine, Paraplatin]",3.8,very minor increase in the resistance,1.2,Neither cell line is cross-resistant,0.7,,0.8,,,,,
< 1,"CC[C@]1(O)C[C@@H]2CN(CCc3c([nH]c4ccccc34)[C@@](C(=O)OC)(c3cc4c(cc3OC)N(C)[C@H]3[C@@](O)(C(=O)OC)[C@H](OC(C)=O)[C@]5(CC)C=CCN6CC[C@]43[C@@H]65)C2)C1 [Vinblastine, Vinblastine sulfate]",0.2,hypersensitive,0.7,hypersensitive,0.6,,162.4,,< 1,resistant,14 ± 2.7,equally sensitive
3 ± 2,"CC[C@]1(O)C[C@H]2CN(CCc3c([nH]c4ccccc34)[C@@](C(=O)OC)(c3cc4c(cc3OC)N(C=O)[C@H]3[C@@](O)(C(=O)OC)[C@H](OC(C)=O)[C@]5(CC)C=CCN6CC[C@]43[C@@H]65)C2)C1 [Vincristine, vincristine]",,,,,,slightly hypersensitive,,,4 ± 1.7,,,equally sensitive

Compound,IC50 (MDA-MB-435 cells) [nM],RF (resistance factor: IC50 resistant cell line / IC50 parental KB-31) (298/D4/40 cells),resistance profile in words (298/D4/40 cells),RF (resistance factor: IC50 resistant cell line / IC50 parental KB-31) (297/C5/0 cells),resistance profile in words (297/C5/0 cells),RF (resistance factor: IC50 resistant cell line / IC50 parental KB-31) (315/sc5.9 cells),resistance profile in words (315/sc5.9 cells),RF (resistance factor: IC50 resistant cell line / IC50 parental KB-31) (KB-8511 cells),IC50 (MDA/T0.3 cells) [nM],IC50 (EA40 cells) [nM],resistance profile in words (KB-8511 cells),IC50 (MDA/T0.3 cells; [1]) [nM],resistance profile in words (EA40 cells)
COc1cccc2c1C(=O)c1c(O)c3c(c(O)c1C2=O)C[C@@](O)(C(C)=O)C[C@@H]3O[C@H]1C[C@H](N)[C@H](O)[C@H](C)O1 [Daunorubicin],382 ± 101,,,,,,,,> 5000,224 ± 72,,,
